{
  "source": "patent US6476199B1",
  "about": "“Reagents for lysergic acid diethylamide immunoassay” (priority 1996, dated 2002)",
  "key": {"LSD antibodies": {"system": "LSD antibodies", "conditions": "prior-art antibodies, Van Vunakis 1971; cited from earlier work"}, "anti-LSD antibody G648 [1]": {"system": "anti-LSD antibody G648", "test": "ELISA microtiter plate assay, plate coated with LSD-BSA label-conjugate 14, antiserum G648", "format": "binding, goats", "conditions": "for G648(OD): conjugate 14 coating, 405 nm, FIG. 1", "protocol": "(§1) The novel reagents were tested in an ELISA immunoassay as described in Example 27. The N-indole derived LSD-BSA label-conjugate 14 containing the biphenyl linker was used to compete against known concentrations of LSD for binding to the anti-LSD antibodies, G648 and G651, raised against the LSD immunogen 8."}, "anti-LSD antibody G651 [2]": {"system": "anti-LSD antibody G651", "test": "ELISA microtiter plate assay, plate coated with LSD-BSA label-conjugate 14, antiserum G651", "format": "binding, goats", "conditions": "for G651(OD): conjugate 14 coating, 405 nm", "protocol": "as §1\nFIG. 2 provides the curve generated from an ELISA microtiter plate assay, as described in Example 27, using nor-LSD as the standard."}, "[3]": {"conditions": "light; pH above 7 epimerization at C-8 to iso-LSD; prolonged light oxidation at C-9; cited from earlier work"}, "anti-LSD antibody G651 [4]": {"system": "anti-LSD antibody G651", "test": "ELISA microtiter plate assay, plate coated with LSD-BSA label-conjugate 21, antiserum G651", "conditions": "conjugate 21 coating, 405 nm, FIG. 3"}, "anti-LSD antibody G648 [5]": {"system": "anti-LSD antibody G648", "test": "ELISA microtiter plate assay, plate coated with LSD-BSA label-conjugate 21, antiserum G648", "conditions": "conjugate 21 coating, 405 nm, FIG. 3"}},
  "data": [
    {"smiles": "CC[C@@H](CO)NC(=O)[C@@H]1C=C2c3cccc4c3c(cn4C)C[C@H]2N(C)C1", "note": "[methysergide]", "values": [
      {"measurement": "competition for binding to the LSD antibodies (cross-reactivity)", "setting": "LSD antibodies", "value": "compete for binding"}
    ]},
    {"smiles": "C[C@@H](CO)NC(=O)[C@@H]1C=C2c3cccc4[nH]cc(c34)C[C@H]2N(C)C1", "note": "[ergonovine]", "values": [
      {"measurement": "competition for binding to the LSD antibodies (cross-reactivity)", "setting": "LSD antibodies", "value": "compete for binding"}
    ]},
    {"smiles": "CN1C[C@H](C(=O)N[C@]2(C)O[C@@]3(O)[C@@H]4CCCN4C(=O)[C@H](Cc4ccccc4)N3C2=O)C=C2c3cccc4[nH]cc(c34)C[C@H]21", "note": "[ergotamine]", "values": [
      {"measurement": "competition for binding to the LSD antibodies (cross-reactivity)", "setting": "LSD antibodies", "value": "compete for binding"}
    ]},
    {"smiles": "CCN(CC)C(=O)[C@@H]1C=C2c3cccc4[nH]cc(c34)C[C@H]2N(C)C1", "note": "[LSD, D-lysergic acid diethyl amide]", "values": [
      {"measurement": "G648(OD)", "setting": "anti-LSD antibody G648 [1]; 0.5 ng/mL free LSD", "value": 0.8, "unit": "OD"},
      {"measurement": "G648(OD)", "setting": "anti-LSD antibody G648 [1]; 1 ng/mL free LSD", "value": 0.33, "unit": "OD"},
      {"measurement": "G648(OD)", "setting": "anti-LSD antibody G648 [1]; 5 ng/mL free LSD", "value": 0.25, "unit": "OD"},
      {"measurement": "G651(OD)", "setting": "anti-LSD antibody G651 [2]; 0.5 ng/mL free LSD, FIG. 1", "value": 1.05, "unit": "OD"},
      {"measurement": "G651(OD)", "setting": "anti-LSD antibody G651 [2]; 1 ng/mL free LSD, FIG. 1", "value": 0.75, "unit": "OD"},
      {"measurement": "G651(OD)", "setting": "anti-LSD antibody G651 [2]; 5 ng/mL free LSD, FIG. 1", "value": 0.39, "unit": "OD"},
      {"measurement": "G651(OD)", "setting": "anti-LSD antibody G651 [2]; 5 ng/mL free drug, FIG. 2", "value": 0.63, "unit": "OD"},
      {"measurement": "stability", "setting": "[3]", "value": "sensitive to light and alkaline pH"},
      {"measurement": "G651(OD)", "setting": "anti-LSD antibody G651 [4]; 0.5 ng/mL free LSD", "value": 0.5, "unit": "OD"},
      {"measurement": "G651(OD)", "setting": "anti-LSD antibody G651 [4]; 1 ng/mL free LSD", "value": 0.33, "unit": "OD"},
      {"measurement": "G651(OD)", "setting": "anti-LSD antibody G651 [4]; 5 ng/mL free LSD", "value": 0.19, "unit": "OD"},
      {"measurement": "G648(OD)", "setting": "anti-LSD antibody G648 [5]; 0.5 ng/mL free LSD", "value": 0.52, "unit": "OD"},
      {"measurement": "G648(OD)", "setting": "anti-LSD antibody G648 [5]; 1 ng/mL free LSD", "value": 0.37, "unit": "OD"},
      {"measurement": "G648(OD)", "setting": "anti-LSD antibody G648 [5]; 5 ng/mL free LSD", "value": 0.17, "unit": "OD"}
    ]},
    {"smiles": "CCN(CC)C(=O)[C@@H]1C=C2c3cccc4[nH]cc(c34)C[C@H]2NC1", "note": "[Nor-LSD, 8β-9,10-didehydro-N,N-diethylergoline-8-carboxamide]", "values": [
      {"measurement": "binding of antibody G648 raised against immunogen 8", "setting": "anti-LSD antibody G648 [1]; in words", "value": "bind"},
      {"measurement": "G651(OD)", "setting": "anti-LSD antibody G651 [2]; 1 ng/mL free drug, FIG. 2", "value": 1.2, "unit": "OD"},
      {"measurement": "G651(OD)", "setting": "anti-LSD antibody G651 [2]; 5 ng/mL free drug, FIG. 2", "value": 0.88, "unit": "OD"},
      {"measurement": "binding of antibody G651 raised against immunogen 8", "setting": "anti-LSD antibody G651 [2]; in words", "value": "bind"}
    ]},
    {"smiles": "CC(C)C[C@H]1C(=O)N2CCC[C@H]2[C@]2(O)O[C@@](C)(NC(=O)[C@@H]3C=C4c5cccc6[nH]cc(c56)C[C@H]4N(C)C3)C(=O)N12", "note": "[ergosine]", "values": [
      {"measurement": "competition for binding to the LSD antibodies (cross-reactivity)", "setting": "LSD antibodies", "value": "compete for binding"}
    ]}
  ]
}
